From patent US8044051B2, “Methods and compositions for the production of high concentration alloxazine solutions” (CaridianBCT Biotechnologies, LLC, priority 2006, dated 2011)
Values joined by “and” are separate entries in the source; they are usually repeats but may differ in a detail not shown here. Equal values may be shown once.

Columns and labels:
[1] = Concentration stability of riboflavin preparations over time (Example 4); format: physicochemical; details: stored at ambient temperature and pressure
Description: The concentration stability of riboflavin was measured over a period of time to determine its stability.
Various preparation of riboflavin were prepared.
Samples 1-3 were prepared by adding 10 mg riboflavin to 100 mL saline, heating at 37° C. for 30 minutes, mixing on a stir-plate for 20 minutes, and filtering through a 20 micron filter.
Sample 4 was made by adding 10 mg riboflavin to 100 mL saline, heating, and filtering through a 0.2 micron filter.
Sample 5 was prepared by adding 20 mg riboflavin to 100 mL saline, heating while mixing for 30 minutes, and filtering through a 0.2 micron filter.
Sample 6 was prepared by adding 5 mg riboflavin to 10 mL saline, heating in a water bath at 60° C. for 30 minutes, shaking vigorously for 30 seconds, and filtering through a 0.2 micron filter.
The concentration stability of riboflavin compositions are shown for each preparation. The riboflavin concentration of each experimental heat treated riboflavin sample is above that of the unheated control sample. Further, the concentration remains stable over a period of time when stored at ambient temperature and pressure.

[2] = Saturation point / solubility of riboflavin in aqueous medium at ambient temperature and pressure
Description: An amount of alloxazine is measured for combination with a solvent such as an aqueous medium or a combination of aqueous medium and a non-polar solvent.

[3] = Riboflavin concentration by absorbance after heated mixing in saline and filtration (Example 3); format: physicochemical
Description: Riboflavin (approximately 70 mg) was added to saline (approximately 200 mL) and continuously mixed on a hot plate. The container was covered, and the solution was mixed for 40 minutes. the solution was filtered through a 0.2 micron filter. The filtered solution was diluted 1:10 and its absorbance was measured.
3 mL of the riboflavin and 147 mL saline were combined. […] 30 mL of the riboflavin/saline solution was transferred to each of four 75 cm^2 flasks, which were irradiated two at a time.

SMILES | concentration stability over time [1] | solubility compared to untreated riboflavin ([2]; room temperature) | concentrations of riboflavin solutions ([3]; Example 3 riboflavin solutions) | riboflavin decomposition (spectrum) ([3]; after heated mixing 40 minutes and filtration) | riboflavin concentration ([3]; approx. 70 mg in approx. 200 mL saline, mixed on hot plate 40 minutes, 0.2 micron filtered, absorbance of 1:10 dilution) | saturation point concentration of riboflavin ([2]; 22° C. and 1 atmosphere pressure, aqueous medium, untreated)
Cc1cc2nc3c(=O)[nH]c(=O)nc-3n(C[C@H](O)[C@H](O)[C@H](O)CO)c2cc1C [riboflavin derivative alpha] | stable over time | increased solubility | – | – | – | –
Cc1cc2nc3c(=O)[nH]c(=O)nc-3n(C[C@H](O)[C@H](O)[C@H](O)CO)c2cc1C [riboflavin, 7,8-dimethyl-10-ribityl isoalloxazine] | – | – | 515 µM and 528 µM | no evidence of riboflavin decomposition | 540 µM | 114 µM
